Data published in patent US11952384B2, “Anti-tumor compound and preparation method and use thereof” (DUALITY BIOLOGICS (SUZHOU) CO., LTD., priority 2020, dated 2024).

Test system: Colo205 cells
Assay: Inhibition of in vitro proliferation of tumor cells by compounds (CTG, 6 days)
Assay type: cell-based
Conditions: Homo sapiens, COLO 205, 144 h, Table 4, Test Example 2.4, small molecule fragments, 6 days of culture
Procedure: To test the inhibitory activity of the pharmaceutical compounds on the in vitro proliferation of NCI-N87 and Colo205 tumor cells. The cells were treated with compounds at different concentrations in vitro, and after 6 days of culture, the proliferation of cells was detected using CTG (CellTiter-Glo® Luminescent Cell Viability Assay, Promega, Cat. No. G7558) reagents, and the in vitro activity of the compounds was evaluated according to the IC50 value. • 1. Culturing of cells: NCI-N87/Colo205 cells were cultured in RPMI-1640 medium containing 10% FBS. • 2. Preparation of cells: NCI-N87/Colo205 cells in logarithmic phase were taken, washed with PBS once, and digested with 2-3 mL of trypsin for 2-3 min. After the cells were digested completely, 10-15 mL of cell culture was added to elute the digested cells. The eluate was centrifuged at 1000 rpm for 5 min, and the supernatant was discarded. […] Sample adding: the prepared samples to be detected at different concentrations were added to the culture plate, and two duplicate wells were set for each sample. […] Plate reading: the 96-well cell culture plate was taken out, placed in a microplate reader, and measured for the chemiluminescence using the microplate reader. Data analysis: data were processed and analyzed using Microsoft Excel and Graphpad Prism 5.

Which IC50 does the source give for `CC[C@@]1(O)C(=O)OCc2c1cc1n(c2=O)Cc2c-1nc1cc(F)c(C)c3c1c2[C@@H](NC(=O)C[C@@H](C)O)CC3` [P-III-20, (R)—N-((1S,9S)-9-ethyl-5-fluoro-9-hydroxy-4-methyl-10,13-dioxo-2,3,9,10,13,15-hexahydro-1H,12H-benzo[de]pyrano[3′,4′: 6,7]indolizino[1,2-b]quinolin-1-yl)-3-hydroxybutanamide] here?
Its IC50 is 20 nM.
